Consider 5 molecules from patent US12699083B2, “Device for continuous measurement of cardiac activity” (The Hospital for Sick Children, priority 2018, dated 2026).

The subject of one assay is hiPSC-CM monolayers. Kind of assay: Drug test on hiPSC-CM monolayers cultured on CNT-PDMS device arrays (contractile stress, beating rate, beating rhythm from CNT sensor resistance). The format is cell-based, human.
The subject of the next assay is single hiPSC-CM. The conditions noted are these: 0.1 μM of OM, TFFB; cited from earlier work.

Procedure for hiPSC-CM monolayers: Once after hiPSC-CMs were seeded, the device array 10 was placed in a humidified 37° C. incubator with 5% CO2, and the electrical signal of the CNT sensors started to be recorded. A constant voltage of 2.5 V was applied to the CNT-PDMS sensors, and sensor signals were recorded with a sampling frequency of 10 Hz.
Drug stocks were kept at 4° C. prior to use. Drug tests were performed on hiPSC-CM monolayers during culture days between 10 and 14. […] After each drug addition, cells were incubated for 10 hours for each dose before CNT sensor signals were recorded to reflect the drug effect.
Each set of data was from 3 to 6 experiment repeats and presented as values of the mean and the standard error of the mean. For differential analysis, all statistics of recorded data was processed using Student's t-test with levels of 0.05, 0.1 when they were compared to the control group. All data sets passed Shapiro-Wilk normality tests and equal variance tests.
The contractile stress generated by cardiomyocytes monolayer during synchronous systole was calculated from the experimentally measured data (i.e., CNT sensor's electrical resistance change).

Consider `Cc1cccc(CCN2CCC(C(=O)c3ccc(NS(C)(=O)=O)cc3)CC2)n1` [E-4031], for which the contractile stress with hiPSC-CM monolayers (0.10 μM E-4031, n=3) amounted to 2.47±0.48 kPa; in the assay on hiPSC-CM monolayers (0.60 μM E-4031, n=3, p>0.1), 2.39±1.38 kPa.

Consider `CC(C)NCC(O)c1ccc(O)c(O)c1` (centres unmarked) [Isoproterenol], for which, in the assay with hiPSC-CM monolayers (2.00 μM isoproterenol), the “beating rate increased by” value amounted to 13.6%. In the assay with hiPSC-CM monolayers (2.00 μM isoproterenol vs control), the “Contractile stress increased by” value turned out to be 69.4%. The molecule also registered a beating rate in the assay with hiPSC-CM monolayers (2.00 μM isoproterenol, n=3, p<0.05, control 1.17±0.068 Hz) of 1.33±0.081 Hz. In the assay with hiPSC-CM monolayers (2.00 μM isoproterenol, n=3, control 2.34±0.093 kPa), this molecule yielded a contractile stress of 3.963±0.532 kPa.

Molecule `COc1cc2c(cc1OC)CC(=O)N(CCCN(C)C[C@H]1Cc3cc(OC)c(OC)cc31)CC2` [Ivabradine] came in with a beating rate with hiPSC-CM monolayers (10.00 μM Ivabradine, n=3, p<0.05, before 1.16±0.32 Hz) of 0.81±0.30 Hz. Besides, in the assay on hiPSC-CM monolayers (10.00 μM Ivabradine, n=3, p>0.1, before 2.26±0.43 kPa), the contractile stress was 2.00±0.68 kPa.

For the molecule `COC(=O)N1CCN(Cc2cccc(NC(=O)Nc3ccc(C)nc3)c2F)CC1` [OM, Omecamtiv mecarbil], the “contractile stress increase by” value in the assay with hiPSC-CM monolayers (20 nM (0.02 μM) OM) was 76%. For the same molecule, the contractile stress with hiPSC-CM monolayers (20 nM (0.02 μM) OM, n=3, p<0.05, before 2.25±0.11 kPa) is 3.96±0.40 kPa. In the assay on hiPSC-CM monolayers (20 nM OM, n=3, p<0.05, before 1.69×10^−2±8.46×10^−4), the “amplitude of ΔR/R0” value is 2.98×10^−2±2.97×10^−3. In the assay on hiPSC-CM monolayers (20 nM OM, n=3, p>0.1, control 1.11±0.25 Hz), the beating rate turned out to be 1.13±0.31 Hz. Moreover, the “Contractility generated by a single cardiomyocyte increased by” value in the assay with single hiPSC-CM is reported as 16.7%.

For the molecule `COc1ccc(CCN(C)CCCC(C#N)(c2ccc(OC)c(OC)c2)C(C)C)cc1OC` (centres unmarked) [Verapamil], the contractile stress in the assay with hiPSC-CM monolayers (0.20 μM Verapamil, n=3, before 2.34±9.31×10^−2 kPa) is 1.15±1.31×10^−1 kPa.
